Assay results as given in patent US20140099354A1, “BIOPASSIVATING MEMBRANE STABILIZATION BY MEANS OF NITROCARBOXYLIC ACID-CONTAINING PHOSPHOLIPIDS IN PREPARATIONS AND COATINGS” (priority 2011, published 2014).

What was measured:
ovarian tissue strips = assay: Cryopreservation of ovarian tissue strips: intact follicles; settings: liquid nitrogen 14 days, cultured 14 days
Experimental: Ovar ectomy was performed in female sheep; resected tissues were cut into 60 ovarian tissue strips. The ovarian strips were either cultured directly (n=4) or prepared with a usual solution for vitrification (VS group; Vitrification Kit, Sage, USA) or incubated with nitrated PLs (NPL group). For this purpose, the tissue strips were bathed in an equibrilation solution (ART-8025-A) which consisted of MOPS-buffered amino acids and gentamicin sulfate (10 mg/l), and 7.5% (v/v) of each DMSO and ethylene glycol and 12 mg/ml human serum albumin for 30 minutes. Thereafter the strips of the VS group were placed in the vitrification solution (ART-8025-B), which is a MOPS-buffered solution containing amino acids and gentamicin sulfate, that contain 15% (v/v) each DMSO and ethylenglycol, 12 mg/ml human albumin and 0.6 M sucrose. The strips of the NPL group were placed in a solution containing 25% (v/v) nitrated PL SNOPC or PNLPC in a PBS-buffered 1% DMSO solution containing 5% human albumin for 60 minutes. The treated tissue strips were then immersed into liquid nitrogen and kept here for 14 days. Then removal and warming of the tissue pieces was performed in AIM-V medium (Gibco, Invitrogen) in a sterile culture dish, first up to 5° C. within 20 minutes, then heated further in a water bath up to 37° C., within the following 60 minutes. The culture medium was replaced and specimens cultured for 14 days. After this, the tissue pieces were fixed, embedded in paraffin and cut, followed by histological examination. […] The total number of intact follicles in the control group was taken as a reference to the number of follicles in the cryopreserved groups.
The culture medium has been exchanged by every 2nd day; samples for hormone analysis were taken and frozen at that time. Determination of 17 β-estradiol and progesterone were performed with a radio-immuno assay (diagnostic systems laboratories, USA).

sciatic nerve = assay: Viability of cryopreserved nerve grafts (Annexin-V staining, FACS); assay type: cell-based, rats; settings: 100 mmolar solution 1 hour; −30° C. 72 hours
Experimental: The sciatic nerve was prepared and sectured in anesthetized rats. The nerve pieces were freed from connective tissue and divided into 3 parts. Specimens were placed in culture DMEM medium containing low a concentration of glucose (1 g/L) with L-glutamine (PAA, Pasching Austria) for 24 hours. […] Nerve specimens from the same animals that received no pretreatment served as controls. After incubation, the specimens were cultured for 24 hours. In a further control group, specimens were cryopreserved without any pretreatment. The specimens were covered with a sterile gauze pad moistened with culture medium. Thereafter the temperature was gradually cooled to −30° C. After 72 hours, the nerve pieces were gradually rewarmed to 37° C. After this, renewed culturing was done for 48 hours. The nerve pieces were dissected enzymatically then (collagenase A and D, Roche, Mannheim, Germany) followed by a mechanical separation through multiple uptake and release in a glass pipette. The isolated cells were washed and marked with a living/death staining (Annexin-V-Fluos staining Kit, Roche Diagnostics, Mannheim, Germany) and quantified using FACS analysis. The number of living cells identified was set in relation to the total cells count.

cortical neurons = assay: Hypoxia and reperfusion of cortical neurons (viability, LDH); settings: neurons and cardiac myocytes; 10 to 50 μmol/l
Experimental: To determine whether the membrane-stabilizing properties of nitrated phospholipids can lead to attenuation of effects due to an ischemic event or the re-perfusion damage, cortical neurons and cardiac myocytes were investigated.
Freshly prepared cortex tissue was separated with Papain and tissue suspensions were cultured in culture vessels (Prim ARA; BD Biosciences, USA) with Neurobasal A/B27 medium (Invitrogen) for 10-12 days. Cell suspensions were divided, and replenished with suspensions of the natural phospholipids SOPC and PLPC, as well as the analogue phospholipids with nitration of unsaturated fatty acids (1-stearoyl-2-(9-nitrooleoyl)-sn-PC and 1-palmitoyl-2-(9-nitrolinoleoyl)-sn-PC) at concentrations of 10 to 50 μmol/l in NaCl (0.9%) were added. […] After 4 hours, the cells were washed three times with buffered saline and buffered NaCl solution with the addition of MgCl2 and CaCl2 in an anaerobic atmosphere (85% N2, 5% O2, 10% CO2; at 35° C.) for 10 and 30 minutes. Then, the cells were washed once and grown in culture medium under aerobic conditions for 24 hours. […] Cells were stained with annexin V-FITC and propidium iodide (Molecular probes, USA). The vital and necrotic cells were measured by flow cytometry (FACSCalibur, Becton & Dickinson). The volume of culture medium was determined and an aliquot was taken for determination of the LDH (lactate dehydrogenase) concentration.

Compound	rate of intact follicles relative to the control group (ovarian tissue strips) [%]	proportion of living cells relative to non-frozen control (sciatic nerve) [%]	results of the hypoxia experiments compared with reference nitrated phospholipids (cortical neurons)
1,2-Di-(9-hydroxy-10-nitrostearoyl)-sn-3-glycerophosphocholine, 1-(9-hydroxy-10-nitrostearoyl)-2-(10-hydroxy-9-nitrostearoyl)-sn-3-glycerophosphocholine, 1-(10-hydroxy-9-nitrostearoyl)-2-(9-hydroxy-10-nitrostearoyl)-sn-3-glycerophosphocholine and 1,2-di-(10-hydroxy-9-nitrostearoyl)-sn-3-glycerophosphocholine [Example O3]	91		
1,2-di-(5-nitroeicosapentaenoyl)-sn-3-glycerophosphocholine, 1,2-di-(6-nitroeicosapentaenoyl)-sn-3-glycerophosphocholine, 1-(5-nitroeicosapentaenoyl)-2-(6-nitroeicosapentaenoyl)-sn-3-glycerophosphocholine and 1-(6-nitroeicosapentaenoyl)-2-(5-nitroeicosapentaenoyl)-sn-3-glycerophosPhocholine [Example N10]	98	82	
1,2-di-(9-nitro-α-linolenoyl)-sn-3-glycerophosphocholine, 1,2-di-(10-nitro-α-linolenoyl)-sn-3-glycerophosphocholine, 1-(9-nitro-α-linolenoyl)-2-(10-nitro-α-linolenoyl)-sn-3-glycerophosphocholine and 1-(10-nitro-α-linolenoyl)-2-(9-nitro-α-linolenoyl)-sn-3-glycerophosphocholine [Example N11]	95		
1,2-di-(9-nitrogadleoyl)-sn-3-glycerophosphocholine, 1,2-di-(10-nitrolinoleoyl)-sn-3-glycerophosphocholine, 1-(9-nitrolinoleoyl)-2-(10-nitrogadoleoyl)-sn-3-glycerophosphocholine and 1-(10-nitrogadoleoyl)-2-(9-nitrogadoleoyl)-sn-3-glycerophosphocholine [Example N9]	90	79	
1,2-di-(dinitro-α-linolenoyl)-sn-glycero-3-phosphatidylcholines [Example N14]		81	
1,2-di-(dinitroeicosapentaenoyl)-sn-glycero-3-phosphatidylcholines [Example N13]	91		
1,2-di-(dinitrolinoleoyl)-sn-glycero-3-phosphatidylcholines [Example N12]	88		
1,2-di-(hydroxyl, nitro-8,11,14,17-eicosatetraenoyl)-sn-3-glycerophosphocholine [Example O5]			slightly worse results
1,2-di-(nitro-γ-linolenoyl)-sn-glycero-3-phosphatidylcholines [Example N5]	89		
1,2-di-(nitroarachidonoyl)-sn-glycero-3-phosphatidylcholines [Example N3]	94		
1,2-di-(nitroarachidonoyl)-sn-glycero-3-phosphatidylcholines [Example N4]	92		
1-Palmitoyl-2-(9-hydroxy-10-nitrostearoyl)-sn-3-glycerophosphocholine and 1-palmitoyl-2-(10-hydroxy-9-nitrostearoyl)-sn-3-glycerophosphocholine [Example O4]	93		
1-Palmitoyl-2-(10-hydroxy-9-nitro-α-linolenoyl)-sn-3-glycerophosphocholine and 1-palmitoyl-2-(9-hydroxy-10-nitro-α-linolenoyl)-sn-3-glycerophosphocholine [Example O6]		78	slightly worse results
1-Palmitoyl-2-(E-9-nitrooleoyl)-sn-3-glycero-phosphatidylinositol [PNOPI]		82	
1-eicosapentaenoyl-2-(5-nitro-EPA)-sn-3-glycerophosphocholine and 1-eicosapentaenoyl-2-(6-nitro-EPA)-sn-3-glycerophosphocholine [Example P4]	93	74	
1-erucinyl-2-(9-nitrogadoleoyl)-sn-3-glycerophosphocholine and 1-erucinyl-2-(10-nitrogadoleoyl)-sn-3-glycerophosphocholine [Example P3]	97	90	
1-oleoyl-2-(9-nitropalmitoleoyl)-sn-3-glycerophosphocholine and 1-oleoyl-2-(10-nitropalmitoleoyl)-sn-3-glycerophosphocholine [Example P1]		90	
CCCCCC/C(=C\CCCCCCCC(=O)OC[C@H](COP(=O)([O-])OCC[N+](C)(C)C)OC(=O)CCCCCCC/C=C(\CCCCCC)[N+](=O)[O-])[N+](=O)[O-] [Example N19, 1,2-di-(E-10-nitropalmitoleoyl)-sn-3-glycerophosphocholine]		84	
CC/C=C(\C/C=C\C/C=C\CCCCCCCC(=O)OC[C@H](COP(=O)([O-])OCC[N+](C)(C)C)OC(=O)CCCCCCC/C=C\C/C=C\C/C(=C\CC)[N+](=O)[O-])[N+](=O)[O-] [Example N20, 1,2-di-(E-15-nitro-α-linolenoyl)-sn-3-glycerophosphocholine]		82	
CCCCCCCCCCCCCCCC(=O)OC[C@H](COP(=O)([O-])OCC[N+](C)(C)C)OC(=O)CCCCCCCC(C(O)CCCCCCCC)[N+](=O)[O-] (stereo partly shown) [Example O2, 1-palmitoyl-2-(9-nitro-10-hydroxy-stearoyl)-sn-3-glycerophosphocholine]	87		
CCCCCCCC/C(=C\CCCCCCCC(=O)O[C@H](COC(=O)CCCCC1CCSS1)COP(=O)([O-])OCC[N+](C)(C)C)[N+](=O)[O-] (stereo partly shown) [Example P9, 1-liponoyl-2-(E-10-nitrooleoyl)-sn-3-glycerophosphocholine]	90		
CC/C=C\C/C=C\C/C=C\C/C=C\C/C=C\C/C=C\CCC(=O)OC[C@H](COP(=O)([O-])OCC[N+](C)(C)C)OC(=O)CCCCCCC/C=C(\CCCCCC)[N+](=O)[O-] [Example P11, 1-DHA-2-(E-10-nitropalmitoleoyl)-sn-3-glycerophosphocholine]	97		
CCCCCCCC/C=C\CCCCCCCC(=O)O[C@H](COC(=O)CCCCCCCCCCCCCCC)COP(=O)(O)OC1[C@H](O)[C@H](O)C(O)[C@H](O)[C@H]1O (stereo partly shown) [POPI, 1-Palmitoyl-2-oleoyl-sn-3-glycero-phosphatidylinositol, reference compound]		20	
